Experimental data published in patent US11160798B2, “Neuroprotective CB2 receptor agonists” (THE CLEVELAND CLINIC FOUNDATION, priority 2012, dated 2021).

Assays:
[1] = tested on: CD11b; test: CD11b immunoreactivity in hippocampal CA1 area (immunostaining, immunoblotting); type: in vivo, rat
Protocol: (§1) Animals were divided into several groups ([…]). The Aβ1-40 group received bilateral intracerebral microinjection of Aβ1-40 fibrils once and saline intraperitoneally (i.p.) daily for 14 days. The Aβ1-40+MDA7 group received bilateral intracerebral microinjection of Aβ1-40 fibrils once and 15 mg/kg MDA7 i.p. daily for 14 days. Other cohorts received smaller doses of MDA7 (5 mg/kg or 1.5 mg/kg) i.p. daily for 14 days to determine the dose-response characteristics for MDA7. In other groups, AM630 (a CB2 antagonist) 5 mg/kg i.p. was administered daily for 14 days either alone (Aβ1-40+AM630 group) or 15 min prior to MDA7 (15 mg/kg i.p.) administration (Aβ1-40+MDA7+AM630 group) to rats injected with β1-40 fibrils. MDA7 group and control group received bilateral intracerebral microinjection of artificial cerebrospinal fluid (130 mM NaCl, 2.6 mM KCl. 4.3 mM MgCl2 and 1.8 mM CaCl2) once and 15 mg/kg MDA7 or saline i.p. daily for 14 days, respectively. Intraperitoneal administration of AM630, MDA7 or saline started on the same day after intracerebral microinjection of Aβ1-40. All drugs were prepared coded. Decoding was performed at the end of all experiments.
Microinjection of amyloid fibrils into the hippocampal CA1 area. Rats were anesthetized with sodium pentobarbital (45 mg/kg i.p.) and restrained in a stereotaxic apparatus. Aβ1-40 fibrils were formed as described previously. […]
Immunostaining. […] Three to six sections from each rat were randomly selected and were analyzed using Leica DMLB fluorescence microscope (Leica Microsystems Wetzlar GmbH, Germany) by one investigator, who was blinded to the origin of tissue being examined. Images were quantified using MCID Core software version 7.0 (InterFocus Imaging Ltd, Cambridge, England). […]

[2] = tested on: CA1 neurons; test: Long-term potentiation (LTP) in hippocampal CA1 slices; type: in vivo, rat; details: for average LTP: Aβ+MDA7 group (15 mg/kg i.p. 14 days), n=9
Protocol: as §1
Hippocampal slice preparation. Brain slices containing hippocampus were prepared. Brain slices used for electrophysiological recording were obtained from all rats (n=10-12 rats per group) that had been subjected to the Morris water maze test. All rats were anesthetized with pentobarbital and then euthanized by decapitation. […]
Whole-cell patch clamp recordings in hippocampal slices. […] The series resistance was optimally compensated by ≥70% and constantly monitored throughout the experiments. […] Excitatory postsynaptic currents (EPSCs) were recorded in the CA1 area in the presence of GABAA antagonist bicuculline (30 μM). The evoked EPSCs were filtered at 2 kHz, digitized at 10 kHz, and acquired and analyzed using Axograph X software. The amplitude of EPSCs was monitored for a baseline period of at least 15 min. […]

[3] = target: hCB1 (Homo sapiens, UniProt P21554); details: cited from earlier work
Sequence of hCB1 (P21554 whole entry): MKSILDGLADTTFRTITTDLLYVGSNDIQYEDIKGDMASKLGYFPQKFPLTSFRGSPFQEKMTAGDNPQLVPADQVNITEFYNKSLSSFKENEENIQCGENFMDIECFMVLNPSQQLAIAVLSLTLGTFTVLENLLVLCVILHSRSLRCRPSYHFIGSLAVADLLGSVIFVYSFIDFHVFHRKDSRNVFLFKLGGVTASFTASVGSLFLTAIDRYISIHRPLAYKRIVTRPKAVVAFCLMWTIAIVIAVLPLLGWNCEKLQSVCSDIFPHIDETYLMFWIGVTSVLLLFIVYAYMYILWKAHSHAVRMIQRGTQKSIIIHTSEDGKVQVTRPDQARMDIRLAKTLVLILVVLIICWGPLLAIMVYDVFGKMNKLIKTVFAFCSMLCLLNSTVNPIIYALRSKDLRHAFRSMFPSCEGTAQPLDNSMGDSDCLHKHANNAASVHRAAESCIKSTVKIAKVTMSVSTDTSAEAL

CC1(Cc2ccccc2)COc2cc(C(=O)N3CCCCC3)ccc21 (stereo not shown) [MDA7, 3-benzyl-3-methyl-2,3-dihydrobenzofuran-6-carboxylic acid-piperidine amide]
CD11b immunofluorescence intensity ([1]; Aβ1-40-injected rats, i.p. for 14 days, vs saline, hippocampal CA1): significantly less | CD11b protein expression (immunoblot) ([1]; Aβ-injected rats, 14 days i.p. (15 mg/kg), vs saline, hippocampal CA1): significantly attenuated | CD11B expression, treatment alone ([1]; rats without Aβ1-40, compared to control rats): no significant effect | average LTP ([2]; 30 min after induction): 214.5±23.6% | average LTP ([2]; 60 min after induction): 195.7±21.8% | induction of LTP, treatment alone ([2]; hippocampal slices of control rats (no Aβ1-40)): failed to significantly affect | EC50 at hCB1 [3]: not active
